Results: patent US20050032124A1, “Identification of genotype-selective agents for treating Huntington's disease” (priority 2003, published 2005)

Columns and labels:
Format in all cases: cell-based, human
BJ primary cells [1] = assay: Sensitization of primary cells by co-treatment, calcein AM viability staining; conditions: BJ (or BJ-TERT) cells; simultaneous treatment
From the text: (A-C) Western blot of lysates from BJ, BJ-TERT, BJ-TERT/LT/ST, BJ-TERT/LT/ST/RAS^V12, BJ-TERT/LT/RAS^V12 and BJ-TERT/LT/RAS^V12/ST cells with an antibody directed against topoisomerase II (A) or TOPI (B, C). In panel (C), cells were transfected with an siRNA directed against TOPI, lamic A/C or with a control double strand DNA duplex of the same length (TOPI dsDNA). In each case, the blot was probed with an antibody against eIF-4E to identify differences in the amount of protein loaded. The relative amount is quantitated below each band. […] Cell number was determined after transfection with an siRNA directed against TOPI and treatment with the indicated concentrations of camptothecin. (E) Okadaic acid, an inhibitor of PP2A and other cellular phosphatases, sensitizes primary human cells to camptothecin. BJ primary cells were treated simultaneously with the indicated concentrations of both camptothecin and okadaic acid and the effect on calcein AM viability staining was determined. […] BJ primary cells were treated with the indicated concentrations of okadaic acid and the expression level of TOPI was determined by western blot. The relative amount is quantitated below each band.
The compounds in group (iii) are camptothecin (CPT) and a novel compound from a combinatorial library, which Applicants have named erastin, for eradicator of RAS and ST-expressing cells (FIG. 2). Efficient CPT-induced and erastin-induced cell death requires the presence of both ST and RAS^V12 (FIGS. 3 and 4 and Table 1). Although CPT and erastin have a similar genetic basis of selectivity, they have distinct mechanisms of action. […] The phosphatase inhibitor okadaic acid was capable of sensitizing otherwise resistant BJ primary cells to CPT (FIG. 5E), possibly because okadaic acid upregulates TOPI (FIG. 5F).

[2] = tested on: TIP5/TERT/E6/E7/ST/RAS^V12 cells; assay: Calcein AM viability assay, dilution-series retest; conditions: TIP5-TERT/E6E7/ST/Ras^V12 cells; 16-point two-fold dilution; two days
From the text: (§1) In a third series, cell lines derived from independently prepared human TIP5 foreskin fibroblasts created by introducing cDNA constructs encoding hTERT, LT, ST and RASV12 (Lessnick et al., 2002, Cancer Cell 1, 393-401) were used. These cell lines were called, respectively: TIP5/TERT, TIP5/TERT/LT, TIP5/TERT/LT/ST, and TIP5/TERT/LT/ST/RAS^V12. In a fourth series, cell lines derived from TIP5 fibroblasts created by introducing cDNA constructs encoding hTERT, E6, E7, ST and RAS^V12 were used. These cell lines were named, respectively: TIP5/TERT/E6, TIP5/TERT/E6/E7, TIP5/TERT/E6/E7/ST, and TIP5/TERT/E6/E7/ST/RAS^V12. In this series, HPV E6 and E7, which inactivate p53 and RB, respectively, serve a similar function as LT in the previous series. However, by using HPV E6 and E7, Applicants were able to observe the effects of inactivating, separately and independently, p53 and RB. Results of a large-scale screen for compounds that display selective killing of these engineered tumorigenic cell lines are described in the examples that follow.
(§2) Calcein acetoxylmethyl ester (AM) is a cell membrane-permeable, non-fluorescent compound that is cleaved by intracellular esterases to form the anionic, cell-impermeable, fluorescent compound calcein. Viable cells are stained by calcein because of the presence of intracellular esterases and because the intact plasma membrane prevents fluorescent calcein from leaking out of cells (Wang et al., 1993, supra). Cells were seeded in 384-well plates using a Zymark Sciclone ALH, treated with each compound in triplicate at 4 μg/mL in the primary screen for two days, washed with phosphate-buffered saline on a Packard Minitrak with a 384-well washer and incubated for four hours with 0.7 μg/mL calcein (Molecular Probes). Total fluorescence intensity in each well was recorded on a Packard Fusion platereader, and converted to a percent inhibition of signal by subtracting the instrument background and dividing by the average signal obtained when cells were not treated with any compound.
(§3) Replica daughter plates were prepared with a Zymark Sciclone ALH and integrated Twister II by diluting stock plates 50 fold in medium lacking serum and pen/strep to obtain a compound concentration in daughter plates of 80 μg/ml with 2% DMSO. Assay plates were prepared by seeding cells in black, clear bottom 384-well plates in columns 1-23 (6000 cells/well in 57 μl) using a syringe bulk dispenser. Columns 3-22 were treated with compounds from a daughter library plate by transferring 3 μl from the daughter library plate using 384-position fixed cannula array. The final compound concentrations in assay plates were thus 4 μg/ml. The assay plates were incubated for 48 hours at 37° C. in humidified incubator containing 5% CO2. Plate processing for the calcein AM viability assay was performed using an integrated Minitrak/Sidetrak robotic system from Packard Bioscience (Perkin Elmer). Assay plates were washed with phosphate buffered saline, and 20 μl of calcein AM (0.7 μg/ml) per well was added. Plates were incubated at room temperature for 4 hours. Fluorescence intensity was determined using a Fusion platereader with filters centered on an excitation of 485 nm and an emission of 535 nm.
(§4) Compounds to be retested were purchased from manufacturers. Stocks were prepared in DMSO at a concentration of 1 mg/ml in 384-well polypropylene plates with a 16-point, two-fold dilution dose curve of each compound in a column, in duplicates. Column 1-2 and 23-24 were left empty for controls. Daughter retest plates were prepared from stock retest plate by diluting 66.6 fold in DMEM in 384-well deep-deep well plates (4.5 μl transfer into 300 μl). Cells were seeded at a density of 6000 per well in 40 μl, and 20 μl was added from a daughter retest plate. The plates were incubated for two days at 37° C. with 5% CO2.
(§5) Mean RFU (relative fluorescence units) for untreated cells was calculated by averaging columns 1, 2, and 23 (wells with cells but lacking compounds). […]

TIP5/TERT/LT cells = assay: Calcein AM viability assay, dilution-series retest; conditions: TIP5 TERT/LT cells; 16-point two-fold dilution; two days
From the text: as §1, §2, §3, §4, §5

TIP5/TERT/E6/E7/ST cells = assay: Calcein AM viability assay, dilution-series retest; conditions: TIP5-TERT/E6E7/ST cells; 16-point two-fold dilution; two days
From the text: as §1, §2, §3, §4, §5

[3] = tested on: TIP5/TERT/LT/ST/RAS^V12 cells; assay: Calcein AM viability assay, dilution-series retest; conditions: TIP5 TERT/LT/ST/Ras^V12 cells; 16-point two-fold dilution; two days
From the text: as §1, §2, §3, §4, §5

TIP5/TERT cells = assay: Calcein AM viability assay, dilution-series retest; conditions: TIP5-TERT cells; 16-point two-fold dilution; two days
From the text: as §1, §2, §3, §4, §5

TIP5/TERT/E6/E7 cells = assay: Calcein AM viability assay, dilution-series retest; conditions: TIP5-TERT/E6E7 cells; 16-point two-fold dilution; two days
From the text: as §1, §2, §3, §4, §5

[4] = tested on: BJ-TERT/LT/ST/RAS^V12 tumorigenic cells; assay: Calcein AM viability assay, dilution-series retest
Method: Described here is work carried out to identify compounds with increased potency or activity in the presence of hTERT, LT, ST, E6, E7 or RAS^V12. […] The primary screen tested (in quadruplicate) the effect of treating tumorigenic BJ-TERT/LT/ST/RAS^V12 engineered tumorigenic cells with each compound for 48 hours at a concentration of 4 μg/mL, corresponding to 10 μM for a compound with a molecular weight of 400, which is the approximate median molecular weight of the libraries. Cell viability was measured using the dye calcein acetoxymethyl ester (calcein AM) (Wang et al., 1993, Hum. Immunol. 3 7, 264-270), which is a non-fluorescent compound that freely diffuses into cells. In live cells, calcein AM is cleaved by intracellular esterases, forming the anionic fluorescent derivative calcein, which cannot diffuse out of live cells. […] The IC50 value (concentration required to inhibit 50% of the calcein AM signal) was calculated for each compound in each cell line (Table 1).
as §2, §3, §4

[5] = tested on: BJ-TERT/LT/RAS^V12/ST cells; assay: Calcein AM viability assay, dilution-series retest; conditions: BJ-TERT/LT/Ras^V12/ST cells; 16-point two-fold dilution; two days
From the text: (§6) Described here is work carried out to identify compounds with increased potency or activity in the presence of hTERT, LT, ST, E6, E7 or RAS^V12. Engineered cell lines with these genetic elements were used to screen […] compounds, including 20,000 compounds from a combinatorial library, 1,990 compounds from the National Cancer Institute diversity collection, and 1,540 biologically active known compounds that were selected and purchased by Applicant and formatted into a screenable collection. The primary screen tested (in quadruplicate) the effect of treating tumorigenic BJ-TERT/LT/ST/RAS^V12 engineered tumorigenic cells with each compound for 48 hours at a concentration of 4 μg/mL, corresponding to 10 μM for a compound with a molecular weight of 400, which is the approximate median molecular weight of the libraries. Cell viability was measured using the dye calcein acetoxymethyl ester (calcein AM) (Wang et al., 1993, Hum. Immunol. 3 7, 264-270), which is a non-fluorescent compound that freely diffuses into cells. In live cells, calcein AM is cleaved by intracellular esterases, forming the anionic fluorescent derivative calcein, which cannot diffuse out of live cells. […] The IC50 value (concentration required to inhibit 50% of the calcein AM signal) was calculated for each compound in each cell line (Table 1). […] Following is a more detailed analysis of these nine compounds.
as §2, §3
(§7) Compounds to be retested were purchased from manufacturers. Stocks were prepared in DMSO at a concentration of 1 mg/ml in 384-well polypropylene plates with a 16-point, two-fold dilution dose curve of each compound in a column, in duplicates. Column 1-2 and 23-24 were left empty for controls. […]

BJ-TERT/LT/ST cells = assay: Calcein AM viability assay, dilution-series retest; conditions: BJ-TERT/LT/ST cells; 16-point two-fold dilution; two days
From the text: as §6, §2, §3, §7

BJ primary cells [6] = assay: Calcein AM viability assay, dilution-series retest; conditions: BJ cells; 16-point two-fold dilution; two days
From the text: as §6, §2, §3, §7

Row | SMILES | sensitization of cells to camptothecin (BJ primary cells [1]) | IC50, TIP5-TERT/E6E7 ST/Ras^V12 [2] [µg/mL] | IC50, TIP5 TERT/LT (TIP5/TERT/LT cells) [µg/mL] | IC50, TIP5-TERT/E6E7 ST (TIP5/TERT/E6/E7/ST cells) [µg/mL] | IC50, TIP5 TERT/LT/ST/Ras^V12 [3] [µg/mL] | IC50, TIP5-TERT (TIP5/TERT cells) [µg/mL] | IC50, TIP5-TERT/E6E7 (TIP5/TERT/E6/E7 cells) [µg/mL] | IC50, BJ-TERT/LT/ST/Ras^V12 ([4]; BJ-TERT/LT/ST/Ras^V12 cells, 16-point two-fold dilution, two days) [µg/mL] | Tumor Selectivity ([4]; IC50 in primary BJ cells divided by IC50 in BJ-TERT/LT/ST/RAS^V12 tumorigenic cells) | IC50, BJ-TERT/LT/Ras^V12/ST [5] [µg/mL] | IC50, BJ-TERT/LT/ST (BJ-TERT/LT/ST cells) [µg/mL] | concentration required to achieve 50% inhibition of calcein AM staining (IC50), BJ (BJ primary cells [6]) [µg/mL]
1 | COc1cc([C@@H]2c3cc4c(cc3[C@H](O)[C@H]3COC(=O)[C@H]23)OCO4)cc(OC)c1OC [podophyllotoxin] | does not sensitize BJ or BJ-TERT cells to CPT |  |  |  |  |  |  |  |  |  |  | 
2 | Cc1c2ccccc2c(CSC(=N)N)c2ccccc12.Cl [NSC146109] |  | 2.5 | >5 | 2.5 | 2.5 | >5 | 2.5 | 2.5 | >4 | 2.5 | 2.5 | >5
